According to ChEMBL document CHEMBL5543084, “Development of cannabidiol derivatives as potent broad-spectrum antibacterial agents with membrane-disruptive mechanism” (Eur J Med Chem, 2024):
≈ marks a conversion by molar mass, not a printed value. Calls of active or inactive are those of the source. The rule behind the calls is not given here.

Tests used:
[1] = system: Staphylococcus aureus; assay: Antibacterial activity against methicillin-resistant Staphylococcus aureus NCTC 10442 assessed as inhibition of bacterial growth incubated for 24 hrs by broth dilution method; assay type: functional
[2] = system: Acinetobacter baumannii; assay: Antibacterial activity against Acinetobacter baumannii R2889 assessed as inhibition of bacterial growth incubated for 24 hrs by broth dilution method; assay type: functional
[3] = system: Klebsiella pneumoniae; assay: Antibacterial activity against Klebsiella pneumoniae ATCC 14581 assessed as inhibition of bacterial growth incubated for 24 hrs by broth dilution method; assay type: functional
[4] = system: Staphylococcus aureus; assay: Antibacterial activity against Staphylococcus aureus ATCC 29213 assessed as inhibition of bacterial growth incubated for 24 hrs in presence of 140 mM Na+ by broth dilution method; assay type: functional
[5] = system: Escherichia coli; assay: Antibacterial activity against Escherichia coli ATCC 25922 assessed as inhibition of bacterial growth incubated for 24 hrs in presence of 140 mM Na+ by broth dilution method; assay type: functional
[6] = system: Klebsiella pneumoniae; assay: Antibacterial activity against Klebsiella pneumoniae ATCC 10031 assessed as inhibition of bacterial growth incubated for 24 hrs in presence of 140 mM Na+ by broth dilution method; assay type: functional
[7] = system: Staphylococcus aureus; assay: Antibacterial activity against methicillin-resistant Staphylococcus aureus NCTC 10442 assessed as inhibition of bacterial growth incubated for 24 hrs in presence of 2.5 mM Ca2+ by broth dilution method; assay type: functional
[8] = system: Staphylococcus aureus; assay: Antibacterial activity against methicillin-resistant Staphylococcus aureus NCTC 10442 assessed as inhibition of bacterial growth incubated for 24 hrs in presence of 1 mM Mg2+ by broth dilution method; assay type: functional
[9] = system: Staphylococcus aureus; assay: Antibacterial activity against Staphylococcus aureus ATCC 29213 assessed as inhibition of bacterial growth incubated for 24 hrs in presence of 4.5 mM K+ by broth dilution method; assay type: functional
[10] = system: Klebsiella pneumoniae; assay: Antibacterial activity against Klebsiella pneumoniae ATCC 10031 assessed as inhibition of bacterial growth incubated for 24 hrs in presence of 4.5 mM K+ by broth dilution method; assay type: functional
[11] = system: Klebsiella pneumoniae; assay: Antibacterial activity against Klebsiella pneumoniae ATCC 10031 assessed as inhibition of bacterial growth incubated for 24 hrs in presence of 19 uM Zn2+ by broth dilution method; assay type: functional
[12] = system: Escherichia coli; assay: Antibacterial activity against Escherichia coli ATCC 25922 assessed as inhibition of bacterial growth incubated for 24 hrs in presence of 20 uM Fe2+ by broth dilution method; assay type: functional
[13] = system: Escherichia coli; assay: Antibacterial activity against Escherichia coli ATCC 25922 assessed as inhibition of bacterial growth incubated for 24 hrs in presence of 20 uM Fe3+ by broth dilution method; assay type: functional
[14] = system: Klebsiella pneumoniae; assay: Antibacterial activity against Klebsiella pneumoniae ATCC 10031 assessed as inhibition of bacterial growth incubated for 24 hrs in presence of 20 uM Fe3+ by broth dilution method; assay type: functional
[15] = Cytotoxicity against mouse fibroblast NCTC clone 929 cells assessed as viable cells at 3.125 microg/ml incubated for 24 hrs by CCK-8 assay; assay type: toxicity, cell-based; conditions: NCTC clone 929 (L929) fibroblast cells, at 3.125 µg/mL, read-out: Activity
[16] = Cytotoxicity against mouse fibroblast NCTC clone 929 cells assessed as viable cells at 6.25 microg/ml incubated for 24 hrs by CCK-8 assay; assay type: toxicity, cell-based; conditions: NCTC clone 929 (L929) fibroblast cells, at 6.25 µg/mL, read-out: Activity
[17] = Cytotoxicity against human HepG2 cells assessed as viable cells at […] microg/ml incubated for 24 hrs by CCK-8 assay; assay type: toxicity, cell-based; conditions: dose 1.56 µg/ml, read-out: Activity
[18] = system: Staphylococcus aureus; assay: Bactericidal activity against methicillin-resistant Staphylococcus aureus NCTC 10442 assessed as bacterial killing at 4 time of MIC concentration incubated for 2 hrs by time-kill assay; assay type: functional
[19] = system: Staphylococcus aureus; assay: Bactericidal activity against methicillin-resistant Staphylococcus aureus NCTC 10442 assessed as bacterial reduction at 8 time of MIC concentration incubated for 0.5 hrs by time-kill assay; assay type: functional
[20] = system: Escherichia coli; assay: Bactericidal activity against Escherichia coli ATCC 25922 assessed as bacterial reduction at 4 time of MIC concentration incubated for 2 hrs by time-kill assay; assay type: functional
[21] = system: Staphylococcus aureus; assay: Drug resistance, ratio of MIC for Staphylococcus aureus NCTC 10442 after 21 passages to MIC for Staphylococcus aureus NCTC 10442 during first exposure; assay type: functional
[22] = system: Cell membrane; assay: Induction of cytoplasmic membrane permeabilization in Pseudomonas aeruginosa ATCC 9027 assessed as disruption of cell membrane integrity measured upto 60 mins by measuring increase in fluorescence intensity at 1 to 8 times of MIC concentration by SYTOX green dye based fluorescence analysis; assay type: cell membranes
[23] = system: Lipoteichoic acid; assay: Displacement of BODIPY-TR-cadaverine from Bacillus subtilis lipoteichoic acid (LTA) assessed as increase in fluorescence intensity by fluorescence spectrophotometric analysis
[24] = system: Lipopolysaccharide (LPS); assay: Displacement of BODIPY-TR-cadaverine from Escherichia coli lipopolysaccharide (LPS) assessed as increase in fluorescence intensity by fluorescence spectrophotometric analysis; assay type: subcellular
[25] = system: Lipopolysaccharide (LPS); assay: Displacement of BODIPY-TR-cadaverine from Escherichia coli lipopolysaccharide (LPS) assessed as increase in fluorescence intensity at 1 times MIC measured after 30 mins by fluorescence spectrophotometric analysis; assay type: subcellular
[26] = system: Lipoteichoic acid; assay: Displacement of BODIPY-TR-cadaverine from Bacillus subtilis lipoteichoic acid (LTA) assessed as increase in fluorescence intensity at 4 times MIC measured after 30 mins by fluorescence spectrophotometric analysis
[27] = system: Staphylococcus aureus; assay: Bactericidal activity against methicillin-resistant Staphylococcus aureus NCTC 10442 assessed as down-regulation of biological processes related gene expression by measuring UMP biosynthetic process (GO:0044,205) at 4 times of MIC concentration measured after 90 mins incubation by RNA sequencing (RNA-seq) study; assay type: functional, organism-based
[28] = system: Escherichia coli; assay: Bactericidal activity against Escherichia coli ATCC 25922 assessed as down-regulation of intracellular sequestering of iron ion (GO:0006880) at 4 times of MIC concentration measured after 90 mins incubation by RNA sequencing (RNA-seq) study; assay type: functional, organism-based
[29] = system: Escherichia coli; assay: Bactericidal activity against Escherichia coli ATCC 25922 assessed as down-regulation of galactose metabolic process (GO:0006012) at 4 times of MIC concentration measured after 90 mins incubation by RNA sequencing (RNA-seq) study; assay type: functional, organism-based
[30] = system: Escherichia coli; assay: Bactericidal activity against Escherichia coli ATCC 25922 assessed as change in amino acid metabolism gene expression at 4 times of MIC concentration measured after 90 mins incubation by RNA sequencing (RNA-seq) study; assay type: functional, organism-based
[31] = system: Staphylococcus aureus; assay: Bactericidal activity against methicillin-resistant Staphylococcus aureus NCTC 10442 assessed as down regulation of other glycan degradation gene expression at 4 times of MIC concentration measured after 90 mins incubation by RNA sequencing (RNA-seq) study; assay type: functional, organism-based
[32] = system: Staphylococcus aureus; assay: Bactericidal activity against methicillin-resistant Staphylococcus aureus NCTC 10442 assessed as up regulation of phosphonate and phosphinate metabolism gene expression at 4 times of MIC concentration measured after 90 mins incubation by RNA sequencing (RNA-seq) study; assay type: functional, organism-based
[33] = system: Staphylococcus aureus; assay: Bactericidal activity against methicillin-resistant Staphylococcus aureus NCTC 10442 assessed as change in metabolic stress associated gene expression by measuring down-regulation of glucosaminidase domain-containing protein (atl, DX983_RS02250) gene expression at 4 times of MIC concentration measured after 90 mins incubation by RNA sequencing (RNA-seq) study; assay type: functional, organism-based; conditions: NTCC 10442
[34] = system: Pseudomonas aeruginosa; assay: In vivo antibacterial activity against Pseudomonas aeruginosa ATCC 9027 infected C57BL6 mouse corneal infection model assessed as reduction in bacterial burden at 3 mg/ml, TOP 4 times in a day for 2 consecutive days; assay type: functional; conditions: time 2 day

C=C(C)[C@@H]1CCC(C)=C[C@H]1c1c(OCCCNC(=N)N)cc(CCCCC)cc1OCCCNC(=N)N
MIC [1]: 0.78 µg/mL (≈ 1.52 µM)
MIC [2]: 3.12 µg/mL (≈ 6.09 µM)
MIC [3]: 1.56 µg/mL (≈ 3.04 µM)
MIC [4]: 0.78 µg/mL
MIC [5]: 3.12 µg/mL
MIC [6]: 3.12 µg/mL
MIC [7]: 0.39 µg/mL
MIC [8]: 0.39 µg/mL
MIC [9]: 0.78 µg/mL
MIC [10]: 6.25 µg/mL
MIC [11]: 3.12 µg/mL
MIC [12]: 1.56 µg/mL
MIC [13]: 1.56 µg/mL
MIC [14]: 3.12 µg/mL
viability at 24 h, 3.125 microg/ml [15]: 92.3%
viability at 24 h, 6.25 microg/ml [16]: 86.2%
viability at 24 h, 1.56 microg/ml [17]: 113%
inhibition (INH) [18]: 99.9%
Activity [19]: 3 log10FFU/ml
Activity [20]: 5.52 log10FFU/ml
Ratio [21]: 4
Activity [22]: Active
Activity [23]: Dose-Dependent Effect
Activity [24]: Dose-Dependent Effect
Activity [25]: 27.7%
Activity [26]: 33.7%
Activity [27]: Active
Activity [28]: Active
Activity [29]: Active
Activity [30]: Active
Activity [31]: Active
Activity [32]: Active
Activity [33]: Active
Activity [34]: 6.41 log10FFU/ml
